# Assay results as given in US20230321012A1 (priority 2021, published 2023).
# Experiment: clinical
# Description: Clinical Trial Outline. […] All solid tumor types are eligible for the trial. […] An expansion cohort was included at the RP2D level to confirm safety and tolerability of the combination. […] In Part 2, patients were treated by giving both agents twice daily (BID dosing schedule).
# Plasma samples were analyzed for AMXT 1501 concentration via a LC/MS^2 procedure (MI-0028-DB-AB; Agilux Laboratories, Worcester, Massachusetts), and the resulting concentration versus time data were used to estimate individual PK parameters using noncompartmental analysis (NCA).
smiles,measurement,setting,value
"CCCCCCCCCCCCCCCC(=O)NCCCC[C@@H](N)C(=O)NCCCNCCCCNCCCN [AMXT 1501, D-lys(palmitoyl)-spermine]",Tmax,"human, plasma, oral, 400 mg, Tmax Median, Part 1 Cohort 3, 400 mg QD, Day 1",5 h
same,AUC(0-t),"human, plasma, oral, 1200 mg, AUC0-6 hr Mean, Part 1 Cohort 4, 1200 mg QD, Cycle 1 Day 1",197 ng·h/mL
same,AUC(0-t),"human, plasma, oral, 1200 mg, AUC0-6 hr Mean, Part 1 Cohort 4, 1200 mg QD, Cycle 1 Day 14",1130 ng·h/mL
same,AUC(0-t),"human, plasma, oral, 1200 mg, AUC0-6 hr Median, Part 1 Cohort 4, 1200 mg QD, Cycle 1 Day 1",238 ng·h/mL
same,AUC(0-t),"human, plasma, oral, 1200 mg, AUC0-6 hr Median, Part 1 Cohort 4, 1200 mg QD, Cycle 1 Day 14",681 ng·h/mL
same,AUC(0-t),"human, plasma, oral, 1200 mg, AUC0-t Mean, Part 1 Cohort 4, 1200 mg QD, Cycle 1 Day 1",2730 ng·h/mL
same,AUC(0-t),"human, plasma, oral, 1200 mg, AUC0-t Mean, Part 1 Cohort 4, 1200 mg QD, Cycle 1 Day 14",4700 ng·h/mL
same,AUC(0-t),"human, plasma, oral, 1200 mg, AUC0-t Median, Part 1 Cohort 4, 1200 mg QD, Cycle 1 Day 1",831 ng·h/mL
same,AUC(0-t),"human, plasma, oral, 1200 mg, AUC0-t Median, Part 1 Cohort 4, 1200 mg QD, Cycle 1 Day 14",3490 ng·h/mL
same,Cmax,"human, plasma, oral, 1200 mg, Cmax Mean, Part 1 Cohort 4, 1200 mg QD, Cycle 1 Day 1",104 ng/mL
same,Cmax,"human, plasma, oral, 1200 mg, Cmax Mean, Part 1 Cohort 4, 1200 mg QD, Cycle 1 Day 14",276 ng/mL
same,Cmax,"human, plasma, oral, 1200 mg, Cmax Median, Part 1 Cohort 4, 1200 mg QD, Cycle 1 Day 1",71.2 ng/mL
same,Cmax,"human, plasma, oral, 1200 mg, Cmax Median, Part 1 Cohort 4, 1200 mg QD, Cycle 1 Day 14",227 ng/mL
same,Tmax,"human, plasma, oral, 1200 mg, Tmax Mean, Part 1 Cohort 4, 1200 mg QD, Cycle 1 Day 1",11.3 h
same,Tmax,"human, plasma, oral, 1200 mg, Tmax Mean, Part 1 Cohort 4, 1200 mg QD, Cycle 1 Day 14",6 h
same,Tmax,"human, plasma, oral, 1200 mg, Tmax Median, Part 1 Cohort 4, 1200 mg QD, Cycle 1 Day 1",6 h
same,Tmax,"human, plasma, oral, 1200 mg, Tmax Median, Part 1 Cohort 4, 1200 mg QD, Cycle 1 Day 14",6 h
same,AUC,"human, plasma, oral, 1800 mg",14200 ng·h/mL
same,AUC(0-t),"human, plasma, oral, 1800 mg, AUC0-6 hr Mean, Part 1 Cohort 5, 1800 mg QD, Cycle 1 Day 1",750 ng·h/mL
same,AUC(0-t),"human, plasma, oral, 1800 mg, AUC0-6 hr Mean, Part 1 Cohort 5, 1800 mg QD, Cycle 1 Day 14",3110 ng·h/mL
same,AUC(0-t),"human, plasma, oral, 1800 mg, AUC0-6 hr Mean, Part 1 Cohort 5, 1800 mg QD, Cycle 2 Day 14, n=1",7240 ng·h/mL
same,AUC(0-t),"human, plasma, oral, 1800 mg, AUC0-6 hr Median, Part 1 Cohort 5, 1800 mg QD, Cycle 1 Day 1",662 ng·h/mL
same,AUC(0-t),"human, plasma, oral, 1800 mg, AUC0-6 hr Median, Part 1 Cohort 5, 1800 mg QD, Cycle 1 Day 14",3020 ng·h/mL
same,AUC(0-t),"human, plasma, oral, 1800 mg, AUC0-6 hr Median, Part 1 Cohort 5, 1800 mg QD, Cycle 2 Day 14, n=1",7240 ng·h/mL
same,AUC(0-t),"human, plasma, oral, 1800 mg, AUC0-t Mean, Part 1 Cohort 5, 1800 mg QD, Cycle 1 Day 1",10200 ng·h/mL
same,AUC(0-t),"human, plasma, oral, 1800 mg, AUC0-t Mean, Part 1 Cohort 5, 1800 mg QD, Cycle 1 Day 14",14200 ng·h/mL
same,AUC(0-t),"human, plasma, oral, 1800 mg, AUC0-t Mean, Part 1 Cohort 5, 1800 mg QD, Cycle 2 Day 14, n=1",33700 ng·h/mL
same,AUC(0-t),"human, plasma, oral, 1800 mg, AUC0-t Median, Part 1 Cohort 5, 1800 mg QD, Cycle 1 Day 1",12700 ng·h/mL
same,AUC(0-t),"human, plasma, oral, 1800 mg, AUC0-t Median, Part 1 Cohort 5, 1800 mg QD, Cycle 1 Day 14",12800 ng·h/mL
same,AUC(0-t),"human, plasma, oral, 1800 mg, AUC0-t Median, Part 1 Cohort 5, 1800 mg QD, Cycle 2 Day 14, n=1",33700 ng·h/mL
same,Cmax,"human, plasma, oral, 1800 mg, Cmax Mean, Part 1 Cohort 5, 1800 mg QD, Cycle 1 Day 1",367 ng/mL
same,Cmax,"human, plasma, oral, 1800 mg, Cmax Mean, Part 1 Cohort 5, 1800 mg QD, Cycle 1 Day 14",794 ng/mL
same,Cmax,"human, plasma, oral, 1800 mg, Cmax Mean, Part 1 Cohort 5, 1800 mg QD, Cycle 2 Day 14, n=1",1950 ng/mL
same,Cmax,"human, plasma, oral, 1800 mg, Cmax Median, Part 1 Cohort 5, 1800 mg QD, Cycle 1 Day 1",374 ng/mL
same,Cmax,"human, plasma, oral, 1800 mg, Cmax Median, Part 1 Cohort 5, 1800 mg QD, Cycle 1 Day 14",766 ng/mL
same,Cmax,"human, plasma, oral, 1800 mg, Cmax Median, Part 1 Cohort 5, 1800 mg QD, Cycle 2 Day 14, n=1",1950 ng/mL
same,Tmax,"human, plasma, oral, 1800 mg, Tmax Mean, Part 1 Cohort 5, 1800 mg QD, Cycle 1 Day 14",5.5 h
same,Tmax,"human, plasma, oral, 1800 mg, Tmax Mean, Part 1 Cohort 5, 1800 mg QD, Cycle 2 Day 14, n=1",6 h
same,Tmax,"human, plasma, oral, 1800 mg, Tmax Median, Part 1 Cohort 5, 1800 mg QD, Cycle 1 Day 1",6 h
same,Tmax,"human, plasma, oral, 1800 mg, Tmax Median, Part 1 Cohort 5, 1800 mg QD, Cycle 1 Day 14",6 h
same,Tmax,"human, plasma, oral, 1800 mg, Tmax Median, Part 1 Cohort 5, 1800 mg QD, Cycle 2 Day 14, n=1",6 h
same,Cmax,"human, plasma, oral, 1800 mg, average Cmax, plasma AMXT 1501, Part 1 Cohort 5, 1,800 mg, repeat dosing Day 14, n=4",794 ng/mL
same,AUC(0-t),"human, plasma, oral, AUC0-6 hr Mean, Part 1 Cohort 1, 80 mg QD, Cycle 1 Day 28, +DFMO 500 mg/day",60.5 ng·h/mL
same,AUC(0-t),"human, plasma, oral, AUC0-6 hr Mean, Part 1 Cohort 2, 160 mg QD, Cycle 1 Day 28, +DFMO 500 mg/day",88.6 ng·h/mL
same,AUC(0-t),"human, plasma, oral, AUC0-6 hr Mean, Part 1 Cohort 3, 400 mg QD, Cycle 1 Day 28, +DFMO 500 mg/day",234 ng·h/mL
same,AUC(0-t),"human, plasma, oral, AUC0-6 hr Mean, Part 1 Cohort 5, 1800 mg QD, Cycle 1 Day 28, +DFMO 500 mg/day",1860 ng·h/mL
same,AUC(0-t),"human, plasma, oral, AUC0-6 hr Median, Part 1 Cohort 1, 80 mg QD, Cycle 1 Day 28, +DFMO 500 mg/day",62.9 ng·h/mL
same,AUC(0-t),"human, plasma, oral, AUC0-6 hr Median, Part 1 Cohort 2, 160 mg QD, Cycle 1 Day 28, +DFMO 500 mg/day",84.8 ng·h/mL
same,AUC(0-t),"human, plasma, oral, AUC0-6 hr Median, Part 1 Cohort 3, 400 mg QD, Cycle 1 Day 28, +DFMO 500 mg/day",93.8 ng·h/mL
same,AUC(0-t),"human, plasma, oral, AUC0-6 hr Median, Part 1 Cohort 5, 1800 mg QD, Cycle 1 Day 28, +DFMO 500 mg/day",1430 ng·h/mL
same,AUC(0-t),"human, plasma, oral, AUC0-t Mean, Part 1 Cohort 1, 80 mg QD, Cycle 1 Day 28, +DFMO 500 mg/day",169 ng·h/mL
same,AUC(0-t),"human, plasma, oral, AUC0-t Mean, Part 1 Cohort 2, 160 mg QD, Cycle 1 Day 28, +DFMO 500 mg/day",150 ng·h/mL
same,AUC(0-t),"human, plasma, oral, AUC0-t Mean, Part 1 Cohort 3, 400 mg QD, Cycle 1 Day 28, +DFMO 500 mg/day",791 ng·h/mL
same,AUC(0-t),"human, plasma, oral, AUC0-t Mean, Part 1 Cohort 5, 1800 mg QD, Cycle 1 Day 28, +DFMO 500 mg/day",7370 ng·h/mL
same,AUC(0-t),"human, plasma, oral, AUC0-t Median, Part 1 Cohort 1, 80 mg QD, Cycle 1 Day 28, +DFMO 500 mg/day",62.9 ng·h/mL
same,AUC(0-t),"human, plasma, oral, AUC0-t Median, Part 1 Cohort 2, 160 mg QD, Cycle 1 Day 28, +DFMO 500 mg/day",112 ng·h/mL
same,AUC(0-t),"human, plasma, oral, AUC0-t Median, Part 1 Cohort 3, 400 mg QD, Cycle 1 Day 28, +DFMO 500 mg/day",422 ng·h/mL
same,AUC(0-t),"human, plasma, oral, AUC0-t Median, Part 1 Cohort 5, 1800 mg QD, Cycle 1 Day 28, +DFMO 500 mg/day",6920 ng·h/mL
same,Cmax,"human, plasma, oral, Cmax Mean, Part 1 Cohort 1, 80 mg QD, Cycle 1 Day 28, +DFMO 500 mg/day",16.4 ng/mL
same,Cmax,"human, plasma, oral, Cmax Mean, Part 1 Cohort 2, 160 mg QD, Cycle 1 Day 28, +DFMO 500 mg/day",23.7 ng/mL
same,Cmax,"human, plasma, oral, Cmax Mean, Part 1 Cohort 3, 400 mg QD, Cycle 1 Day 28, +DFMO 500 mg/day",55.8 ng/mL
same,Cmax,"human, plasma, oral, Cmax Mean, Part 1 Cohort 5, 1800 mg QD, Cycle 1 Day 28, +DFMO 500 mg/day",401 ng/mL
same,Cmax,"human, plasma, oral, Cmax Median, Part 1 Cohort 1, 80 mg QD, Cycle 1 Day 28, +DFMO 500 mg/day",15.1 ng/mL
same,Cmax,"human, plasma, oral, Cmax Median, Part 1 Cohort 2, 160 mg QD, Cycle 1 Day 28, +DFMO 500 mg/day",23.2 ng/mL
same,Cmax,"human, plasma, oral, Cmax Median, Part 1 Cohort 3, 400 mg QD, Cycle 1 Day 28, +DFMO 500 mg/day",20.3 ng/mL
same,Cmax,"human, plasma, oral, Cmax Median, Part 1 Cohort 5, 1800 mg QD, Cycle 1 Day 28, +DFMO 500 mg/day",321 ng/mL
same,Tmax,"human, plasma, oral, Tmax Mean, Part 1 Cohort 1, 80 mg QD, Cycle 1 Day 28, +DFMO 500 mg/day",11.3 h
same,Tmax,"human, plasma, oral, Tmax Mean, Part 1 Cohort 2, 160 mg QD, Cycle 1 Day 28, +DFMO 500 mg/day",4.5 h
same,Tmax,"human, plasma, oral, Tmax Mean, Part 1 Cohort 3, 400 mg QD, Cycle 1 Day 28, +DFMO 500 mg/day",11.3 h
same,Tmax,"human, plasma, oral, Tmax Mean, Part 1 Cohort 5, 1800 mg QD, Cycle 1 Day 28, +DFMO 500 mg/day",4.67 h
same,Tmax,"human, plasma, oral, Tmax Median, Part 1 Cohort 1, 80 mg QD, Cycle 1 Day 28, +DFMO 500 mg/day",6 h
same,Tmax,"human, plasma, oral, Tmax Median, Part 1 Cohort 2, 160 mg QD, Cycle 1 Day 28, +DFMO 500 mg/day",4 h
same,Tmax,"human, plasma, oral, Tmax Median, Part 1 Cohort 3, 400 mg QD, Cycle 1 Day 28, +DFMO 500 mg/day",6 h
same,Tmax,"human, plasma, oral, Tmax Median, Part 1 Cohort 5, 1800 mg QD, Cycle 1 Day 28, +DFMO 500 mg/day",4 h
same,Cmax,"human, plasma, oral, mean Cmax, plasma AMXT 1501, n=9 patients, 1,200 mg daily split BID plus 1,000 mg daily DFMO split BID",493 ng/mL
same,Cmax,"human, plasma, oral, plasma AMXT 1501 Cmax with no DLTs observed, a couple of adult patients",> 1000 ng/mL
same,Cmax,"human, plasma, oral, plasma Cmax, AMXT 1501, melanoma patient, 1,200 mg daily split BID plus 1,000 mg daily DFMO",239 ng/mL
same,effect of co-administration of DFMO on PK of AMXT 1501,"patients, DFMO co-administration",no obvious effect
same,dose dependence of mean AMXT 1501 exposure,"single or repeat PO dosing, dose levels of 160 mg and higher",increased in a dose-dependent manner
same,plasma AMXT 1501 level achieved,three patients in First-in-Human trial,"1,000 ng/mL"
